# From patent US20160289678A1, “USE OF MICRORNA 146-A IN THE DIAGNOSIS, TREATMENT AND PREVENTION OF PICORNAVIRUS INFECTION AND MICRORNA 146-A ANTAGONISTS” (priority 2013, published 2016)
# Entries after “also recorded” stand apart in the source; their conditions may differ.
# Key:
# mEV71 = test: LNA antagomiR injection in EV71 infection mouse model: mice survival; assay type: in vivo, C57BL/6 mice
# Text: (§1) The sequence of LNA antagomiR-146a used in the example is 5′-[…]-3′ (SEQ ID NO:20). Even though the importance of miR-146a in EV71 pathogenesis was clearly elucidated by using miR-146a^−/− mice model, however, the therapeutic potential of miR-146a silencing should be practically evaluated in EV71 infection mouse model. LNA antagomiR-146a, designed locked nucleic acid, was first injected intraperitoneally to evaluate the potential adverse events caused by LNA antagomiRs. […] After making sure the safety of LNA antagomiRs, we next introduced LNA AntagomiR-146a into wild-type mice before or after virus infection as indicated and monitored clinical symptoms of mice daily. […] To verify whether attenuation of virus-induced miR-146a by LNA antagomiR-146a could restore the expression of miR-146a targets, IRAK1 and TRAF6 in assayed organs were measured by Western blot.
# Mouse-adapted EV71 and LNA AntagomiRs Administration. C57BL/6 mice were provided by the Knockout Mouse Core Laboratory of National Taiwan University Center of Genomic Medicine, housed in specific pathogen-free animal rooms, and treated according to guidelines from the National Taiwan University College of Medicine and College of Public Health Institutional Animal Care and Use Committee (IACUC). Mouse-adapted EV71 (mEV71) was established referring to a report published by Wang, Y. F. in 2004. mEV71 was generated after four serial passages in neonate mice started from parental human EV71 Parental human EV71 was injected intraperitoneally and next generation mEV71, called 1st mEV71, was isolated from neonate mice brain tissue at 3 d.p.i. The isolated 1st mEV71 was then propagated in RD cells. The passage procedures were performed four times. To determine the 50% lethal dose (LD50), seven-day-old wild-type C57BL/6 mice were fed with indicated PFUs of mEV71. The survival of mice was monitored daily. For wild-type C57BL/6 mice and miR-146a−/− C57BL/6 mice inoculation, each group (n=9 to 13) housed in the same cage was infected with indicated PFUs of mEV71 through the oral route, and the control group was fed with culture medium. The animals were monitored daily, and clinical signs, weight and mortality were recorded. All mouse tissues were obtained from scarified mice with significant clinical illness signs or at 3 d.p.i. if mice had no significant illness signs. The tissues were further assayed for real-time RT-PCR, Western blot, plaque assay, immunohistochemistry staining, and so on. For LNA antagomiRs injection, wild-type mice were injected with LNA antagomiR-146a (1.2 mg/kg) or LNA antagomiR negative control (1.2 mg/kg) through the intraperitoneal route before or after virus infection as indicated and monitored daily. The institutional animal care and use committee (IACUC) approved all animal protocols.
# [1] = Potential adverse events of LNA antagomiRs: HE staining and blood chemistry (liver, kidney, serum); assay type: in vivo, mice; conditions: intraperitoneal injection
# Text: as §1
# Mouse-adapted EV71 and LNA AntagomiRs Administration. […] The survival of mice was monitored daily. […] The animals were monitored daily, and clinical signs, weight and mortality were recorded. […] For LNA antagomiRs injection, wild-type mice were injected with LNA antagomiR-146a (1.2 mg/kg) or LNA antagomiR negative control (1.2 mg/kg) through the intraperitoneal route before or after virus infection as indicated and monitored daily. […]
# miR-146a = miR-146a expression in organs of mEV71-infected mice by real-time RT-PCR; assay type: in vivo, C57BL/6 mice; conditions: treatment at 0 and 1 d.p.i.; particularly intestine, muscle and lung; vs mock infection / negative control
# Text: as §1
# (§2) Individual Real-Time RT-PCR. Quantification of miR-146a, Homo RNU6B, mus U6 snRNA , mus IFNβ, and mus β-actin were performed using TaqMan microRNA individual assays or TaqMan gene expression assays (000468, 001093, 001973, Mm00439546_s1 and Mm00607939_s1; Life Technologies) according to the manufacturer's instructions. […] The threshold cycle (CT) is defined as the fractional cycle number at which the fluorescence passes the fixed threshold. […]
# (§3) Mouse-adapted EV71 and LNA AntagomiRs Administration. […] The survival of mice was monitored daily. […]
# IRAK1 and TRAF6 [2] = test: IRAK1 and TRAF6 expression in organs of mEV71-infected mice by Western blot; assay type: in vivo, C57BL/6 mice; conditions: specifically heart, lung and muscle
# Text: as §1
# Western Blot. Cells or tissues were harvested in RIPA lysis buffer [50 mM Tris-HCl (pH 7.4), 150 mM NaCl, 1 mM EDTA, 1% Triton X-100, 0.1% SDS, 1% sodium deoxycholate, 1 mM PMSF, and protease inhibitor cocktail], and the protein concentration was measured by the BCA protein assay (BioRad). […]
# Mouse-adapted EV71 and LNA AntagomiRs Administration. […] The survival of mice was monitored daily. […] The animals were monitored daily, and clinical signs, weight and mortality were recorded. […]
# IFNβ [3] = test: IFNβ expression in EV71-infected mice by real-time RT-PCR; assay type: in vivo, C57BL/6 mice; conditions: EV71-infected wild-type mice treated at 0 and 1 d.p.i., vs mock infection and negative control
# Text: as §1, §2, §3
# IRAK1 and TRAF6 [4] = test: IRAK1 and TRAF6 Western blot in EV71-infected RD cells; assay type: cell-based, Human; conditions: antagomiR transfected into host cells followed by virus infection
# IFNβ promoter = IFNβ promoter luciferase assay in EV71-infected RD cells; assay type: cell-based, Human; conditions: henceforth 4 h.p.i., compared with negative control or mock transfection
# Protocol: Luciferase Assay. All transfections were carried out in triplicate in 96-well plates. RD cells (1×10^4 per well) were seeded 24 h prior to transfection. The luciferase reporter constructs along with the control plasmids (pRL-TK Vector; Promega) were co-transfected into cells at the DNA ratio 5:1 in the presence of pSilencer miRNA expressing vectors (Life Technologies) as indicated by Lipofectamine LTX reagent (Life Technologies). After 48 h incubation, the Dual-Glo luciferase substrate (Promega) was added to each well and the luminescent signals were measured by Victor3 multilabel counter (PerkinElmer) according to the manufacturer's instructions. For IFNβ promoter assays, the reporter constructs were co-transfected with antagomiR-NC or antagomiR-146a into RD cells prior to virus infection. After 24 h incubation, all transfectants were infected with EV71 and assayed at indicated time points. The activity of Renilla luciferase was used as an internal control to normalize transfection efficiency.
# IFNβ [5] = test: IFNβ mRNA expression in EV71-infected RD cells by real-time RT-PCR; assay type: cell-based, Human; conditions: antagomiR-146a transfectants, EV71 infection
# IRAK1 and TRAF6 [6] = test: IRAK1 and TRAF6 Western blot in EV71-infected Caco-2 cells; assay type: cell-based, Human; conditions: compared with negative controls
# TRAF6 and IRAK1 = TRAF6 and IRAK1 in mEV71-infected MEF cells; assay type: cell-based; conditions: MEF cells transfected, then mEV71 infection; vs antagomiR-NC
# Text: MEF cells were infected with mEV71, followed by quantification of miR-146a using real-time RT-PCR (n=3). MI, mock infection. * P-value <0.05 as compared with mock infection. (b) mEV71 infection suppressed IRAK1 and TRAF6 expressions in protein level in MEF cells. (c) Predicted mus miR-146a BSs within mus IRAK1 and TRAF6 3′UTRs (the first nucleotide following the stop codon was designated as +1). (d) The effect of the ectopic miR-146a on the endogenous IRAK1 and TRAF6. MEF cells were transfected with the miR-146a overexpressing vector or negative control and assayed for IRAK1 and TRAF6 and for miR-146a by western blot and real-time RT-PCR, respectively (n=3). MT, mock transfection; NC, negative control. (e) AntagomiR-146a restored mEV71-induced suppression of TRAF6 and IRAK1 in MEF cells. MEF cells were transfected with antagomiR-146a or antagomiR-NC followed by mEV71 infection. All data presented are mean±s.d. and all P-values are calculated by Student's t-test.
Substance,"survival (mEV71; injection 1 hour before virus infection (0 d.p.i.), 1.2 mg/kg intraperitoneal, 2*10^8 PFU mEV71) [%]","survival (mEV71; injection at 1 d.p.i., 1.2 mg/kg intraperitoneal, 2*10^8 PFU mEV71) [%]","survival (mEV71; injection at 2 d.p.i., 1.2 mg/kg intraperitoneal) [%]",survival (mEV71; injection at 3 d.p.i.),"survival probability (mEV71; intraperitoneal, injected before (0 d.p.i.) or after (1 and 2 d.p.i.) virus infection)","pathological changes (HE staining and blood chemistry of liver, kidney, serum) [1]",virus-induced miR-146a expression (miR-146a),IRAK1 and TRAF6 expression (IRAK1 and TRAF6 [2]),IFNβ expression (IFNβ [3]),IFNβ expression (IFNβ [3]; listed as LNA is antagomiR-146a),IRAK1 and TRAF6 expression (IRAK1 and TRAF6 [4]),IRAK1 and TRAF6 expression (IRAK1 and TRAF6 [4]; listed as AntagomiR-146a),IFNβ promoter activity (IFNβ promoter),IFNβ promoter activity (IFNβ promoter; listed as AntagomiR-146a),IFNβ mRNA expression (IFNβ [5]),IFNβ mRNA expression (IFNβ [5]; listed as AntagomiR-146a),IRAK1 and TRAF6 expression (IRAK1 and TRAF6 [6]),IRAK1 and TRAF6 expression (IRAK1 and TRAF6 [6]; listed as AntagomiR-146a),mEV71-induced suppression of TRAF6 and IRAK1 (TRAF6 and IRAK1)
"5′-AACCCATGGAATTCAGTTCTCA-3′ (LNA-modified, pattern not given here) [LNA antagomiR-146a, designed locked nucleic acid miR-146a antagonist, 22 nucleotides]",80,70,56,did not improve mice survival,improves survival probability,no significant pathological changes,neutralized; also recorded: dramatically suppressed,restored,regain of IFNβ production,induced,–,–,–,–,–,–,–,–,–
"antagomiR-146a: specific antagomiR (Life Technologies) transfected into cells to neutralize virus-induced miR-146a (antisense AACCCATGGAATTCAGTTCTCA; LNA-modified, pattern not given here)",–,–,–,–,–,–,–,–,–,–,restored,recovered remarkably,attenuated,restored,increased dramatically,eliminated the suppression,restored,restores,restored
